Data on 5 compounds can be found in paper PMC8776094, “Reactive Oxygen Species Production Is Responsible for Antineoplastic Activity of Osmium, Ruthenium, Iridium and Rhodium Half-Sandwich Type Complexes with Bidentate Glycosyl Heterocyclic Ligands in Various Cancer Cell Models” (International Journal of Molecular Sciences, 2022).

“Also recorded” adds a separate entry of the source.

Common to all, as to assay type: cell-based
The subject of assay [1] is A2780 ovarian cancer cells. Briefly: SRB assay, 48 h, cytostasis, A2780. Conditions: for cytostatic activity on A2780 cells in SRB assay (in words): 48 h treatment; for IC50 / A2780 Max. Inh. (%): SRB assay, 48 h; for A2780 Max. Inh. (%): ND = not detected. The gist of the method: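 A2780 cells in RPMI 1640 with 10% FCS, exposed to compounds from 0.001694 to 33.3333 µM for 48 h. TCA-fixed, SRB-stained protein read at 540 nm relative to untreated wells; IC50 from four-parameter variable-slope nonlinear regression.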

The test system of assay [2] is ID8 ovarian cancer cell line. The assay is described as follows: SRB assay, 48 h, cytostasis, ID8. To be noted: for IC50 / ID8 Max. Inh. (%): SRB assay, 48 h; for ID8 Max. Inh. (%): ND = not detected. The gist of the method:
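ID8 cells in high-glucose DMEM with 4% FCS and ITS, treated 48 h with compounds at 0.001694–33.3333 µM. TCA-fixed, SRB-stained, read at 540 nm relative to untreated wells; maximal inhibition and, where possible, IC50 and Hill slope by four-parameter nonlinear regression.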
(In SRB staining, fixed cells bind dye roughly in proportion to their protein.)

Assay [3] relates to Saos, an osteosarcoma cell line. Briefly: SRB assay, 48 h, cytostasis, Saos. To be noted: for IC50 / Saos Max. Inh. (%): SRB assay; for Saos Max. Inh. (%): ND = not detected. The text has this:
We turned next to assessing whether the cytostatic activity of Os-3, Os-4, Os-5, Os-6 and Ir-6 complexes is specific for ovarian cancer cell lines or if they may be active on other cell lines. To that end, we tested the complexes on another carcinoma cell line (Capan2, a pancreatic adenocarcinoma cell line), on a sarcoma cell line (Saos, an osteosarcoma cell line) and on a lymphoma cell line (L428, a Hodgkin’s lymphoma cell line).
Saos cells were maintained in DMEM (4.5 g/L glucose) medium, supplemented with 10% fetal calf serum, 2 mM glutamine, and 1% penicillin-streptomycin.
(§1) The assay was performed similarly to the method used in [73]. Cells were seeded in 96-well plates the day before the assay. Cells were treated with the compounds for 48 h, with the exception of L428, where 96 h of treatment was applied. Cells were fixed with 10% trichloroacetic acid (TCA). Fixed cells were washed in distilled water 3 times, followed by staining with SRB (0.4 m/V% dissolved in 1% acetic acid) for 10 min. The stained cells were washed in 1% acetic acid 5 times; the acetic acid was removed, and the cells were left to dry. Protein-bound SRB was released by adding 100 µL 10 mM Tris base. Plates were measured in a plate photometer (Thermo Scientific Multiscan GO spectrophotometer, Waltham, MA, USA) at 540 nm. On each plate, wells were designed to contain untreated cells. In calculations, the readings for these wells were considered as 1 and all readings were expressed relative to these values.
Statistical analysis was performed using the 8.0.1 version of Graphpad Prism. Values were tested for normal distribution, using the d’Agostino and Pearson normality test. When necessary, values were log-normalized or were normalized using the Box-Cox normalization method or using a two-step transformation, as indicated in the figure captions. Nonlinear regression was performed using the built-in “[Inhibitor] vs. Response—Variable slope (four parameters), least-square fit” utility of Graphpad, yielding the IC50 and Hill slope values.
Here, 1.5 × 10^3 Capan2, 3 × 10^3 Saos cells and 10^4 L428 cells were plated onto 96-well plates. Capan2 and Saos cells were treated with the compounds in the concentrations indicated for 48 h for an SRB assay. L428 cells were treated with the compounds in the concentrations indicated for 96 h, then cells were counted using conventional microscopy and a Burker chamber. Data are represented as average ± SD, from three biological replicates; individual assays were performed in duplicate. Values were normalized for vehicle-treated cells; the absorbance for vehicle-treated cells is equal to 1. A one-way ANOVA, followed by a Kruskal–Wallis test, was performed individually for each compound. The results of the statistical analysis are presented in an Excel spreadsheet at https://figshare.com/s/28d14597d5041f08eb08 (accessed on 6 January 2022). Nonlinear regression was performed on the data.

Another assay relates to A2780 cells. The assay is described as follows: SRB assay with or without 1 mM vitamin E co-treatment. Conditions: 48 h SRB. On the procedure: To assess the causative role of oxidative stress in cytostasis induced by the compounds we identified in this study, we co-treated cells with the compounds and with vitamin E, a lipophilic antioxidant.
as §1
Figure 10 Assessment of selected Os(II) and Ir(III) complexes (Os-3‒Os-6, Ir-6) for cytostatic activity. Here, 1.5 × 10^3 A2780 cells were plated onto 96-well plates. Cells were treated with the compounds in the concentrations indicated for 48 h for an SRB assay with or without 1 mM vitamin E. Data are represented as average ± SD, from three biological replicates; individual assays were performed in duplicate. Values were normalized for vehicle-treated cells. Absorbance for vehicle-treated cells is equal to 1. Normality was assessed using the d’Agostino and Pearson test. Os-3, Os-4, Os-6, Ir-6 data had normal distribution, while in Os-5, normality was achieved using the Box-Cox normalization method. Statistical difference was assessed using a two-way ANOVA test; all measurement points were compared with each other. *, ** and *** indicate statistically significant differences between vehicle-treated (control) cells and those treated with a compound but not with vitamin E, at p < 0.05 and p < 0.001, respectively. #, ##, and ### indicate statistically significant differences between vehicle-treated (no Vitamin E) and the cells treated with a Vitamin E at p < 0.05, p < 0.01 and p < 0.001, respectively. !, !!, and !!! indicate statistically significant differences between vitamin E and vehicle-treated cells (control) and the cells treated with vitamin E and a compound at p < 0.05, p < 0.01 and p < 0.001, respectively.

Broadly, the IC50 is the point on the concentration scale where inhibition reaches its midpoint. Regarding `Cc1c(C)c(C)[c-](C)c1C.F[P-](F)(F)(F)(F)F.O=C(OCC1OC(n2cc(-c3ccccn3)nn2)C(OC(=O)c2ccccc2)C(OC(=O)c2ccccc2)C1OC(=O)c1ccccc1)c1ccccc1.[Cl][Ir+2]` (mixture of isomers) [Ir-6], in assay [1], the “cytostatic activity on A2780 cells in SRB assay (in words)” value (“cytostatic activity on A2780 cells” below) is “pronounced; also recorded: displayed cytostatic activity”, the IC50 is 1640 nM and the “A2780 Max. Inh. (%)” value stood at 100%. Further, in assay [2] (48 h treatment), the “cytostatic activity on ID8 cells, SRB assay (in words)” value is on record as “pronounced cytostatic activity”. Besides, in assay [2], it took 980 nM to reach half-maximal inhibition (IC50) and the “ID8 Max. Inh. (%)” value is listed as 100%. In assay [3], the “cytostatic activity on Saos cells (in words)” value is “active on all cell lines”, the IC50 stood at 2.71 µM and the “Saos Max. Inh. (%)” value is 100%. In addition, in the assay with A2780 cells, the “effect of vitamin E on the cytostatic properties of the complex” value (“effect of vitamin E” below) was “potently inhibited by vitamin E”.

As for `Cc1ccc(C(C)C)cc1.F[P-](F)(F)(F)(F)F.O=C(OCC1OC(c2nnc(-c3ccccn3)o2)C(OC(=O)c2ccccc2)C(OC(=O)c2ccccc2)C1OC(=O)c1ccccc1)c1ccccc1.[Cl][Os+]` (mixture of isomers) [Os-3], in assay [1], the “cytostatic activity on A2780 cells” value is reported as “exerted cytostatic activity”, inhibition was half-maximal at 2520 nM (IC50) and the “A2780 Max. Inh. (%)” value was 100%. For the same compound, in assay [2], inhibition was half-maximal at 5940 nM (IC50) and the “ID8 Max. Inh. (%)” value was 100%. Further, in assay [3], the “cytostatic activity on Saos cells (in words)” value is recorded as “active on all cell lines” and the “Saos Max. Inh. (%)” value stood at 65%. Also, the “effect of vitamin E” value in the assay with A2780 cells is reported as “potently inhibited by vitamin E”.

Take `Cc1ccc(C(C)C)cc1.F[P-](F)(F)(F)(F)F.O=C(OCC1OC(c2nnc(-c3ccccn3)o2)C(OC(=O)c2ccccc2)C(OC(=O)c2ccccc2)C1OC(=O)c1ccccc1)c1ccccc1.[Cl][Os+]` (mixture of isomers) [Os-4]: in assay [1], the “cytostatic activity on A2780 cells” value is given as “exerted cytostatic activity”, inhibition was half-maximal at 3230 nM (IC50) and the “A2780 Max. Inh. (%)” value is on record as 100%. Further, in assay [2], inhibition was half-maximal at 6950 nM (IC50) and the “ID8 Max. Inh. (%)” value is reported as 100%. Further, in assay [3], the “cytostatic activity on Saos cells (in words)” value is recorded as “active on all cell lines”, the half-maximal inhibitory concentration (IC50) was determined as 8.78 µM and the “Saos Max. Inh. (%)” value is reported as 100%. The “effect of vitamin E” value with A2780 cells is “potently inhibited by vitamin E”.

Regarding `Cc1ccc(C(C)C)cc1.F[P-](F)(F)(F)(F)F.O=C(OC1COC(c2nnc(-c3ccccn3)o2)C(OC(=O)c2ccccc2)C1OC(=O)c1ccccc1)c1ccccc1.[Cl][Os+]` (mixture of isomers) [Os-5], in assay [1], the “cytostatic activity on A2780 cells” value is “exerted cytostatic activity”, half-maximal inhibition (IC50) required 2810 nM and the “A2780 Max. Inh. (%)” value was 100%. For the same compound, in assay [2], it took 1960 nM to reach half-maximal inhibition (IC50) and the “ID8 Max. Inh. (%)” value is given as 100%. In addition, in assay [3], the “cytostatic activity on Saos cells (in words)” value was “active on all cell lines”, the IC50 was found to be 8.52 µM and the “Saos Max. Inh. (%)” value is recorded as 100%. Moreover, the “effect of vitamin E” value in the assay with A2780 cells is “potently inhibited by vitamin E”.

For the compound `Cc1ccc(C(C)C)cc1.F[P-](F)(F)(F)(F)F.O=C(OCC1OC(n2cc(-c3ccccn3)nn2)C(OC(=O)c2ccccc2)C(OC(=O)c2ccccc2)C1OC(=O)c1ccccc1)c1ccccc1.[Cl][Os+]` (mixture of isomers) [Os-6], in assay [1], the “cytostatic activity on A2780 cells” value is listed as “exerted cytostatic activity”, half-maximal inhibition (IC50) was put at 700 nM and the “A2780 Max. Inh. (%)” value is 100%. In addition, in assay [2], the IC50 came to 1960 nM and the “ID8 Max. Inh. (%)” value was determined as 100%. For the same compound, in assay [3], the “cytostatic activity on Saos cells (in words)” value is given as “active on all cell lines”, inhibition was half-maximal at 3.6 µM (IC50) and the “Saos Max. Inh. (%)” value is 100%. The “effect of vitamin E” value in the assay on A2780 cells is “potently inhibited by vitamin E”.
